Carcinogen call data for 83 molecules are collected here from PubChem BioAssay AID2202555 (NIEHS Division of Translational Toxicology (DTT)).

Records with an inconclusive call do not appear. Calls of active or inactive are those of the source. No rule for the calls is given here.

One series concerns rat and mouse 2-year carcinogenicity bioassay, tumor evidence. In words: Consolidated carcinogenicity assay summary data. The settings on record: Route (rodents): Dosed feed. The text has this:
Cancer Evaluation Criteria
The National Toxicology Program describes the results of individual experiments on a chemical agent and notes the strength of the evidence for conclusions regarding each study. […] Other organizations, such as the International Agency for Research on Cancer, assign a strength of evidence for conclusions based on an examination of all available evidence, including animal studies such as those conducted by the NTP, epidemiologic studies, and estimates of exposure. Thus, the actual determination of risk to humans from chemicals found to be carcinogenic in laboratory animals requires a wider analysis that extends beyond the purview of these studies.
Five categories of evidence of carcinogenic activity are used in the Technical Report series to summarize the strength of evidence observed in each experiment: two categories for positive results (clear evidence and some evidence); one category for uncertain findings (equivocal evidence); one category for no observable effects (no evidence); and one category for experiments that cannot be evaluated because of major flaws (inadequate study). These categories of interpretative conclusions were first adopted in June 1983 and then revised on March 1986 for use in the Technical Report series to incorporate more specifically the concept of actual weight of evidence of carcinogenic activity. For each separate experiment (male rats, female rats, male mice, female mice), one of the following five categories is selected to describe the findings. These categories refer to the strength of the experimental evidence and not to potency or mechanism.
For studies showing multiple chemical-related neoplastic effects that if considered individually would be assigned to different levels of evidence categories, the following convention has been adopted to convey completely the study results. In a study with clear evidence of carcinogenic activity at some tissue sites, other responses that alone might be deemed some evidence are indicated as "were also related" to chemical exposure. In studies with clear or some evidence of carcinogenic activity, other responses that alone might be termed equivocal evidence are indicated as "may have been" related to chemical exposure.
When a conclusion statement for a particular experiment is selected, consideration must be given to key factors that would extend the actual boundary of an individual category of evidence. Such consideration should allow for incorporation of scientific experience and current understanding of long-term carcinogenesis studies in laboratory animals, especially for those evaluations that may be on the borderline between two adjacent levels. These considerations should include:
- adequacy of the experimental design and conduct;
- occurrence of common versus uncommon neoplasia;
- progression (or lack thereof) from benign to malignant neoplasia as well as from preneoplastic to neoplastic lesions;
- some benign neoplasms have the capacity to regress but others (of the same morphologic type) progress. At present, it is impossible to identify the difference. Therefore, where progression is known to be a possibility, the most prudent course is to assume that benign neoplasms of those types have the potential to become malignant;
- combining benign and malignant tumor incidences known or thought to represent stages of progression in the same organ or tissue;
- latency in tumor induction;
- multiplicity in site -specific neoplasia;
- supporting information from proliferative lesions (hyperplasia) in the same site of neoplasia or in other experiments (same lesion in another sex or species);
- presence or absence of dose relationships;
- statistical significance of the observed tumor increase;
- concurrent control tumor incidence as well as the historical control rate and variability for a specific neoplasm;
- survival-adjusted analyses and false positive or false negative concerns;
- structure-activity correlations; and
[…]
`Cc1ccc2c(c1N)C(=O)c1ccccc1C2=O`: the carcinogen call was “active; clear evidence”.
For the molecule `ClC1=C(Cl)C2(Cl)C3C(Cl)C(Cl)CC3C1(Cl)C2(Cl)Cl` (stereo not drawn), the carcinogen call is “active; no evidence”.
Same read-out and setting: as for `Nc1ccc(N=Nc2ccccc2)c(N)n1`, the entry is “active; clear evidence”; as for `O=C1OC(c2ccc(O)cc2)(c2ccc(O)cc2)c2ccccc21`, “active; clear evidence”; as for `Nc1ccccc1`, “active; clear evidence”.
For `Cc1ccc(N=Nc2c(O)ccc3ccccc23)c([N+](=O)[O-])c1`, the carcinogen call is “active; some evidence”.
For the molecule `Cc1ccc2c(c1[N+](=O)[O-])C(=O)c1ccccc1C2=O`, the carcinogen call was “active; clear evidence”.
On the same count and under the same terms, as for `O=C(O)c1ccc([N+](=O)[O-])cc1`, the entry is “active; no evidence”; as for `O=C1c2ccccc2-c2ccc3c4c(ccc1c24)-c1ccccc1C3=O`, “active; no evidence”; as for `CCC1(c2ccccc2)C(=O)NCNC1=O`, “active; equivocal evidence”.
In the case of `ClC1=C(Cl)C2(Cl)C3C(Cl)C=CC3C1(Cl)C2(Cl)Cl` (stereo not drawn), the carcinogen call is “active; no evidence”.
`Nc1c(Br)cc(Br)c2c1C(=O)c1ccccc1C2=O`: the carcinogen call is “active; clear evidence”.
Take `Nc1ccc(Cl)c(N)c1`: the carcinogen call is “active; clear evidence”.
As to `Nc1ccc(N)c2c1C(=O)c1c(N)ccc(N)c1C2=O`, the carcinogen call was “active; clear evidence”.
On to `CN(C)NC(=O)CCC(=O)O`, for which the carcinogen call was “active; no evidence”.
`Nc1ccc(Cl)cc1N`: the carcinogen call was “active; clear evidence”.
Regarding `O=P(OCC(Br)CBr)(OCC(Br)CBr)OCC(Br)CBr` (stereo not drawn), the carcinogen call is “active; clear evidence”.
Turning to `CCCC[C@@H](C)[C@@H](OC(=O)C[C@@H](CC(=O)O)C(=O)O)[C@H](C[C@@H](C)C[C@H](O)CCCC[C@@H](O)C[C@H](O)[C@H](C)N)OC(=O)C[C@@H](CC(=O)O)C(=O)O`, the carcinogen call is “active; clear evidence”.
Same read-out and setting: in the case of `Nc1ccccc1-c1ccccc1` it was “active; no evidence”; in that of `Oc1ccc2ccccc2c1N=Nc1ccccc1`, “active; clear evidence”; in that of `NS(=O)(=O)c1cc(C(=O)O)c(NCc2ccco2)cc1Cl`, “active; equivocal evidence”.
Same read-out and setting: as for `CC(=O)Nc1ccc(N=Nc2cc(C)ccc2O)cc1`, the entry is “active; clear evidence”; as for `Nc1cccc2c(N)cccc12`, “active; no evidence”; as for `N=C1C=CC(=C(c2ccc(N)cc2)c2ccc(N)cc2)C=C1`, “active; clear evidence”.
`Cc1cc(N=Nc2c(O)ccc3ccccc23)c(S(=O)(=O)O)cc1Cl`: the carcinogen call is “active; clear evidence”.
Same read-out and setting: in the case of `COc1cc(-c2ccc(N=C=O)c(OC)c2)ccc1N=C=O` it was “active; clear evidence”; in that of `CCNC(=O)Nc1ncc([N+](=O)[O-])s1`, “active; no evidence”.
Turning to `CCNC(=S)NCC`, the carcinogen call was “active; clear evidence”.
As to `NCCCCCCCCCCC(=O)O`, the carcinogen call is “active; clear evidence”.
On the same count and under the same terms, as for `O=C([O-])c1cc(N=Nc2ccc(-c3ccc(N=Nc4c(O)ccc(N=Nc5cc(S(=O)(=O)[O-])ccc5[O-])c4[O-])cc3)cc2)ccc1O.[Cu+2].[Na+].[Na+]`, the entry is “active; no evidence”; as for `ClC1(Cl)C2(Cl)C3(Cl)C4(Cl)C(Cl)(Cl)C5(Cl)C3(Cl)C1(Cl)C5(Cl)C24Cl` (stereo not drawn), “active; clear evidence”.
The same measure, in the same setting: in the case of `O=C1Nc2ccc(Cl)cc2C(c2ccccc2)=NC1O` (stereo not drawn) it was “active; equivocal evidence”.

The series is the same for the next values; noted with them: Route (rodents): Dosed water.
With `Cc1cccnc1`, the carcinogen call is “active; no evidence”.
On the same count and under the same terms, as for `O=C(O)C(Cl)Br` (stereo not drawn), the entry is “active; clear evidence”.
The same measure, in the same setting: in the case of `[O]=[Cr](=[O])([OH])[O][Cr](=[O])(=[O])[OH]` it was “active; clear evidence”; in that of `Cc1cc(-c2ccc(N)c(C)c2)ccc1N`, “active; clear evidence”.
`Nc1ccc(Cc2ccc(N)cc2)cc1`: the carcinogen call was “active; clear evidence”.
Still for that read-out and setting: as for `[O-][Cl+2]([O-])O`, the entry is “active; some evidence”; as for `NC(=O)C1CO1` (stereo not drawn), “active; clear evidence”.

Staying with this series, now noted: Route (rodents): Gavage.
For `ClCc1cccnc1`, the carcinogen call was “active; clear evidence”.
Same read-out and setting: as for `Nc1cc([N+](=O)[O-])ccc1O`, the entry is “active; some evidence”; as for `CC(O)c1ccccc1` (stereo not drawn), “active; some evidence”; as for `COc1c(Cl)c(Cl)c(Cl)c(Cl)c1Cl`, “active; some evidence”.
As for `ClC(Br)Br`, the carcinogen call is “active; no evidence”.
Same read-out and setting: in the case of `Clc1cc2oc3c(Cl)c(Cl)c(Cl)cc3c2cc1Cl` it was “active”; in that of `ClCCCl`, “active; clear evidence”; in that of `c1cc(OCC2CO2)cc(OCC2CO2)c1` (stereo not drawn), “active; clear evidence”.
In the case of `C=CCOC(=O)CC(C)C`, the carcinogen call is “active; clear evidence”.
The same measure, in the same setting: in the case of `O=C(O)c1cc(N=Nc2ccc(S(=O)(=O)Nc3ccccn3)cc2)ccc1O` it was “active; some evidence”; in that of `Clc1ccc(Cl)cc1`, “active; clear evidence”; in that of `O=P(OCCCl)(OCCCl)OCCCl`, “active; clear evidence”.
On the same count and under the same terms, in the case of `O=Cc1ccccc1` it was “active; no evidence”.
The same measure, in the same setting: in the case of `CN(C)c1ccccc1` it was “active; some evidence”; in that of `O=c1ccc2ccccc2o1`, “active; some evidence”.
For `Clc1ccc(N=Nc2ccc(Cl)c(Cl)c2)cc1Cl`, the carcinogen call was “active; clear evidence”.
On the same count and under the same terms, as for `O=Cc1ccc(CO)o1`, the entry is “active; no evidence”.
On the same count and under the same terms, in the case of `ClC(Cl)C(Cl)Cl` it was “active; equivocal evidence”; in that of `ClC=C(Cl)Cl`, “active; no evidence”; in that of `NC=O`, “active; no evidence”.
The same measure, in the same setting: in the case of `OC(O)C(Cl)(Cl)Cl` it was “active”.
For `COP(=O)(OC)OC`, the carcinogen call is “active; clear evidence”.
The same measure, in the same setting: as for `Oc1ccc(O)cc1`, the entry is “active; some evidence”.
Still for that read-out and setting: as for `C=CCc1ccc(OC)c(OC)c1`, the entry is “active; clear evidence”; as for `Nc1ccc(O)c(N)c1`, “active; no evidence”.

The series is the same for the next values; noted with them: Route (rodents): Gavage; Second Route: Topical.
As to `Clc1cc2c(cc1Cl)Oc1cc(Cl)c(Cl)cc1O2`, the carcinogen call was “active; clear evidence”.

Still in this series, the particulars now being: Route (rodents): Inhalation.
Consider `[O]=[Mo](=[O])=[O]`, for which the carcinogen call is “active; equivocal evidence”.
The same measure, in the same setting: in the case of `CC(=O)C(C)=O` it was “active; some evidence”.
Regarding `C=CCOCC1CO1` (stereo not drawn), the carcinogen call was “active; equivocal evidence”.
On to `c1ccc2ccccc2c1`, for which the carcinogen call is “active; clear evidence”.
Regarding `ClCCl`, the carcinogen call is “active; some evidence”.
With `CC(C)CON=O`, the carcinogen call was “active; clear evidence”.
For the molecule `CCc1ccccc1`, the carcinogen call is “active; clear evidence”.
Consider `ClC(Cl)=C(Cl)Cl`, for which the carcinogen call was “active; clear evidence”.
Take `O.O.O.O.O.O.O.O=S(=O)([O-])[O-].[Co+2]`: the carcinogen call is “active; some evidence”.

Staying with this series, now noted: Route (rodents): Inhalation; Second Route: Gavage.
With `ClCC(Br)CBr` (stereo not drawn), the carcinogen call is “active; clear evidence”.
On the same count and under the same terms, in the case of `BrCCBr` it was “active; clear evidence”.

The series is the same for the next values; noted with them: Route (rodents): Interperitoneal.
`CC(CN1CC(=O)NC(=O)C1)N1CC(=O)NC(=O)C1` (stereo not drawn): the carcinogen call was “active; no evidence”.

The same series, now with this note: Route (rodents): Topical.
Regarding `OCCNCCO`, the carcinogen call is “active; no evidence”.
Still for that read-out and setting: as for `CCCCCCCCCCCC(=O)N(CCO)CCO`, the entry is “active; no evidence”.
Same read-out and setting: as for `C1CC2OC2CC1C1CO1` (stereo not drawn), the entry is “active; clear evidence”.
On the same count and under the same terms, as for `OCCN(CCO)CCO`, the entry is “active; equivocal evidence”; as for `OCC(Br)CBr` (stereo not drawn), “active; clear evidence”; as for `Oc1cc(Cl)ccc1Oc1ccc(Cl)cc1Cl`, “active”.
